Data set [1] deals with Human immunodeficiency virus. The data set can be described thus: Compound was tested for cellulr inhibition of HIV was determined; Range is 25-50. Type of data set: functional. Particulars: Human immunodeficiency virus 1.
The nature of data set [2]: Concentration maxima after oral dosing in dogs. Type of data set: ADME, organism-based, Canis lupus familiaris. Details: route oral. Particulars: dog, in vivo.
The target in data set [3] is Human immunodeficiency virus type 1 protease (Human immunodeficiency virus 1, UniProt Q72874). In words: Inhibition of Human Immunodeficiency virus-1 protease.
Data set [4] concerns Human immunodeficiency virus. The data set can be described thus: Compound was tested for cellulr inhibition of HIV was determined. In kind it is functional. Particulars: Human immunodeficiency virus 1.
For data set [5], the system named is Human immunodeficiency virus. In words: Compound was tested for cellulr inhibition of HIV was determined; Range is 6-12. Particulars: Human immunodeficiency virus 1. Type of data set: functional.
For data set [6], the system named is Human immunodeficiency virus. In words: Compound was tested for cellulr inhibition of HIV was determined; Range is 12-25. In kind it is functional. As to conditions: Human immunodeficiency virus 1.

The structures appear in SMILES notation. Where only a bound is given, the exact number is not on record here.

Here are results for 13 molecules from ChEMBL document CHEMBL1128025, “Synthesis and evaluation of pyridyl analogs of L-735,524: Potent HIV-1 protease inhibitors” (Bioorg Med Chem Lett, 1994).

As a reminder, the IC95 is the point of the concentration-response curve where the effect stands at 95%. A higher IC95 goes with a need for much substance. Usually Cmax stands for the peak of the concentration-time curve. A word on the IC50: it is the concentration that inhibits the measured activity by half. Read a low IC50 as greater potency.

Turning to `CC(C)(C)NC(=O)[C@@H]1CN(Cc2c(F)cccc2F)CCN1C[C@@H](O)C[C@@H](Cc1ccncc1)C(=O)N[C@H]1c2ccccc2C[C@H]1O`, the IC95 in data set [1] turned out to be 50 nM. Further, the Cmax in data set [2] was 8060 nM. The molecule also showed an IC50 in data set [3] of 0.48 nM.

On to `CC(C)(C)NC(=O)[C@@H]1CN(S(=O)(=O)c2cccc3cccnc23)CCN1C[C@@H](O)C[C@@H](Cc1ccncc1)C(=O)N[C@H]1c2ccccc2C[C@H]1O`, for which the concentration for an effect of 95% (IC95) in data set [4] was found to be 200 nM. This molecule gave an IC50 in data set [3] of 0.015 nM.

With `CC(C)(C)NC(=O)[C@@H]1CN(Cc2cc(Br)cs2)CCN1C[C@@H](O)C[C@@H](Cc1cccnc1)C(=O)N[C@H]1c2ccccc2C[C@H]1O`, the Cmax in data set [2] was 633 nM. In addition, it took 25 nM to reach the 95% level in data set [4] (IC95). The molecule also displayed a concentration for half-maximal inhibition (IC50) in data set [3] of 0.03 nM.

In data set [5], `CC(C)(C)NC(=O)[C@@H]1CN(Cc2cc3ccsc3s2)CCN1C[C@@H](O)C[C@@H](Cc1ccncc1)C(=O)N[C@H]1c2ccccc2C[C@H]1O` had an IC95 of 12 nM. For the same molecule, in data set [2], the highest concentration (Cmax) came to 1730 nM. The same molecule displayed an IC50 in data set [3] of 0.06 nM.

In data set [5], `CC(C)(C)NC(=O)[C@@H]1CN(Cc2cc3ccsc3s2)CCN1C[C@@H](O)C[C@@H](Cc1cccnc1)C(=O)N[C@H]1c2ccccc2C[C@H]1O` yielded an IC95 of 12 nM. Besides, the Cmax in data set [2] is 7290 nM. This molecule also had an IC50 in data set [3] of 0.12 nM.

Regarding `CC(C)(C)NC(=O)[C@@H]1CN(S(=O)(=O)c2cccc3cccnc23)CCN1C[C@@H](O)C[C@@H](Cc1cccnc1)C(=O)N[C@H]1c2ccccc2C[C@H]1O`, the IC95 in data set [4] is > 200 nM. Moreover, the half-maximal inhibitory concentration (IC50) in data set [3] worked out at 0.03 nM.

Turning to `CC(C)(C)NC(=O)[C@@H]1CN(Cc2cccnc2)CCN1C[C@@H](O)C[C@@H](Cc1cccnc1)C(=O)N[C@H]1c2ccccc2C[C@H]1O`, in data set [4], the IC95 was > 200 nM. The half-inhibitory concentration (IC50) in data set [3] came out at 1.7 nM.

On to `CC(C)(C)NC(=O)[C@@H]1CN(Cc2cc3sccc3s2)CCN1C[C@@H](O)C[C@@H](Cc1cccnc1)C(=O)N[C@H]1c2ccccc2C[C@H]1O`, for which it took 12 nM to reach the 95% level in data set [5] (IC95). The molecule also had a maximum concentration (Cmax) in data set [2] of 3290 nM. This molecule yielded a half-inhibitory concentration (IC50) in data set [3] of 0.09 nM.

`CC(C)(C)NC(=O)[C@@H]1CN(Cc2cc(Br)cs2)CCN1C[C@@H](O)C[C@@H](Cc1ccncc1)C(=O)N[C@H]1c2ccccc2C[C@H]1O` showed a Cmax in data set [2] of 2200 nM. Further, in data set [6], the 95% effect level (IC95) was put at 25 nM. For the same molecule, it took 0.11 nM to reach half-maximal inhibition in data set [3] (IC50).

In data set [4], `CC(C)(C)NC(=O)[C@@H]1CN(Cc2cccnc2)CCN1C[C@@H](O)C[C@@H](Cc1ccccc1)C(=O)N[C@H]1c2ccccc2C[C@H]1O` [INDINAVIR] came in with an IC95 of 50 nM.

Turning to `CC(C)(C)NC(=O)[C@@H]1CN(Cc2c(F)cccc2F)CCN1C[C@@H](O)C[C@@H](Cc1cccnc1)C(=O)N[C@H]1c2ccccc2C[C@H]1O`, the peak level in data set [2] (Cmax) was 1010 nM. Moreover, in data set [4], the IC95 is 12.2 nM. For the same molecule, in data set [3], half-maximal inhibition (IC50) was put at 0.14 nM.

In the case of `CC(C)(C)NC(=O)[C@@H]1CN(Cc2cc3sccc3s2)CCN1C[C@@H](O)C[C@@H](Cc1ccncc1)C(=O)N[C@H]1c2ccccc2C[C@H]1O`, the 95% effect level in data set [5] (IC95) was put at 12 nM. The highest level in data set [2] (Cmax) was 1590 nM. The molecule further showed a half-maximal inhibitory concentration (IC50) in data set [3] of 0.05 nM.

In data set [2], `CC(C)(C)NC(=O)[C@@H]1CN(Cc2cccnc2)CCN1C[C@@H](O)C[C@@H](Cc1ccncc1)C(=O)N[C@H]1c2ccccc2C[C@H]1O` registered a Cmax of 414 nM. Further, in data set [4], the IC95 is > 200 nM. In data set [3], half-maximal inhibition (IC50) was put at 1.7 nM.
